The results in this text go back to ChEMBL document CHEMBL5360542, “Current development of β-carboline derived potential antimalarial scaffolds” (Eur J Med Chem, 2023).

Common to all, as to assay type: functional, organism-based
In test [1] the test system is Plasmodium falciparum. The experiment in a line: Antimalarial activity against chloroquine-sensitive Plasmodium falciparum D10 transfected in human type A-positive RBC cells assessed reduction in parasite growth by measuring LDH activity incubated for 72 hrs by spectrophotometric analysis.
The subject of test [2] is Plasmodium falciparum. As to the kind of experiment: Antimalarial activity against chloroquine-resistant Plasmodium falciparum W2 transfected in human type A-positive RBC cells assessed reduction in parasite growth by measuring LDH activity incubated for 72 hrs by spectrophotometric analysis.
The subject of test [3] is Plasmodium falciparum. As to the kind of experiment: Antimalarial activity against chloroquine-resistant Plasmodium falciparum K1 infected in human A positive erythrocytes assessed as reduction in parasite growth incubated for 24 hrs by [3H]hypoxanthine based scintillation counting analysis. The conditions noted are these: K1, Erythrocyte.
In test [4] the test system is Plasmodium falciparum. As to the kind of experiment: Antimalarial activity against Plasmodium falciparum 3D7 infected in human A positive erythrocytes assessed as reduction in parasite growth incubated for 24 hrs by [3H]hypoxanthine based scintillation counting analysis. The conditions noted are these: 3D7, Erythrocyte.
The test system of test [5] is Plasmodium falciparum. As to the kind of experiment: Antimalarial activity against Plasmodium falciparum 3D7 infected in erythrocytes assessed as inhibition of parasite growth incubated for 48 hrs by SYBR-Green I fluorescence-based assay. The conditions noted are these: 3D7, Erythrocyte.
For test [6], the system named is Plasmodium falciparum. As to the kind of experiment: Antimalarial activity against Plasmodium falciparum INDO infected in erythrocytes assessed as inhibition of parasite growth incubated for 48 hrs by SYBR-Green I fluorescence-based assay. Conditions: Erythrocyte.
Test [7] deals with Plasmodium falciparum. As to the kind of experiment: Antiplasmodial activity against chloroquine-sensitive erythrocyte stage Plasmodium falciparum 3D7 assessed as inhibition of parasite growth incubated for 3 days by ELISA. The conditions noted are these: 3D7, Erythrocyte, 72 h. In general terms: ELISA stands for enzyme-linked immunosorbent assay.
In test [8] the test system is Plasmodium falciparum. As to the kind of experiment: Antiplasmodial activity against chloroquine-resistant erythrocyte stage Plasmodium falciparum Dd2 assessed as inhibition of parasite growth incubated for 3 days by ELISA. Conditions: 72 h.
For test [9], the system named is Plasmodium falciparum. As to the kind of experiment: Antimalarial activity against chloroquine-sensitive Plasmodium falciparum 3D7 assessed as reduction in parasite growth.
Test [10] has as its system Plasmodium falciparum. The experiment in a line: Antimalarial activity against chloroquine-resistant Plasmodium falciparum K1 assessed as reduction in parasite growth.
Test [11] relates to Plasmodium falciparum. As to the kind of experiment: Antiplasmodial activity against multi-resistant Plasmodium falciparum W2 infected in erythrocytes assessed as inhibition of parasite growth incubated for 48 hrs by flow cytometry. The conditions noted are these: W2, Erythrocyte. Background: In flow cytometry, cells or beads pass a laser one at a time.
[12] abbreviates: Plasmodium falciparum, D10, Erythrocyte, 72 h.
Setting [13] is: Plasmodium falciparum, W2, Erythrocyte, 72 h.

Take `CC1NC(C(=O)N2CCCCC2)Cc2c1[nH]c1ccccc21` (configuration not stated): the IC50 (commonly the concentration at which inhibition is half-maximal) in [1] (setting [12]) came out at 13.2 µM; in test [2] (setting [13]), 9.6 µM. Regarding `CCCCCCCC[C@@H]1N[C@@H](C(=O)NCCC(C)(C)C)Cc2c1[nH]c1ccccc21`, the IC50 was determined as 4.45 µM in [1] (setting [12]) and 4 µM in [2] (setting [13]). With `Clc1ccc2[nH]c3c(NCCN4CCOCC4)nccc3c2c1`, the IC50 in test [3] stood at 4.95 µM; in test [4], 2.35 µM. Regarding `CCOC(=O)c1cc2c([nH]c3ccccc32)c(-c2ccc(NS(=O)(=O)c3ccc(C)cc3)cc2)n1`, the IC50 worked out at 3.7 µM in [5] and 1.9 µM in test [6]. In the case of `CCOC(=O)c1cc2c([nH]c3ccccc32)c(-c2ccc(NC(=O)C(C)(C)C)cc2)n1`, the IC50 in [5] came out at 3.5 µM; in test [6] it was 2.38 µM. On to `C/C(=C\c1ccccc1)C(=O)NCCOc1ccc2c(c1)[nH]c1c(C)nccc12`, for which the IC50 in [7] was 6.78 µM; in test [8], 19.5 µM. As for `COC(=O)c1cc2c3ccccc3n3c2c(n1)C(c1ccccc1)OC(C)=C3` (configuration not stated), the concentration for half-maximal inhibition (IC50) in [9] and in [10] was more than 5 µM in each case. For the compound `COC(=O)c1cc2c3ccccc3n3c2c(n1)COC(C)=C3`, in [9], the half-maximal inhibitory concentration (IC50) was more than 5 µM. Take `CCOC(=O)c1cc2c([nH]c3ccccc32)c(-c2ccc(/N=C(/Nc3ccc(OC(F)(F)F)cc3)NC3CC3)cc2)n1`: the figures for the half-maximal inhibitory concentration (IC50) in test [5] and in test [6] were 1 µM and 0.77 µM, respectively. As to `Clc1ccc2[nH]c3c(N4CCC(N5CCOCC5)CC4)nccc3c2c1`, the concentration for half-maximal inhibition (IC50) in [3] stood at 1.9 µM; in test [4] it was 5.32 µM. In the case of `COc1ccc2c3ccnc(C)c3n(CCNC(=O)/C=C/c3ccc(Cl)cc3)c2c1`, the IC50 was determined as 0.04 µM in [7] and 0.17 µM in test [8]. As to `O=C(NCCCN1CCOCC1)C1Cc2c([nH]c3ccccc23)C(c2ccc(Cl)cc2)N1` (configuration not stated), the IC50 worked out at 11.5 µM in [1] (setting [12]) and 6.15 µM in test [2] (setting [13]). With `Clc1ccc2[nH]c3c(NCCCn4ccnc4)nccc3c2c1`, the IC50 in [3] was determined as 0.92 µM; in test [4], 0.45 µM. Take `CCC1NC(C(=O)NC23CC4CC(CC(C4)C2)C3)Cc2c1[nH]c1ccccc21` (configuration not stated): the concentration for half-maximal inhibition (IC50) in [1] (setting [12]) amounted to 9.73 µM; in test [2] (setting [13]) it was 11.4 µM. Consider `COC(=O)c1cc2c3cc(Cl)ccc3n3c2c(n1)COC(C)=C3`, for which the half-maximal inhibitory concentration (IC50) came out at 1.78 µM in [9] and 2.45 µM in [10]. As to `Cc1nccc2c1[nH]c1cc(OCCNC(=O)/C=C/c3ccccc3F)ccc12`, the 50% inhibitory concentration (IC50) in test [7] stood at 0.93 µM; in [8], 3.92 µM. Consider `CCOC(=O)c1cc2c([nH]c3ccccc32)c(-c2ccc(/N=C(/Nc3ccc(OC)cc3)NC3CC3)cc2)n1`, for which the IC50 in test [5] worked out at 7.6 µM; in [6], 1.2 µM. For `CCOC(=O)c1cc2c([nH]c3ccccc32)c(-c2ccc(NC(=S)Nc3ccc(OC(F)(F)F)cc3)cc2)n1`, the IC50 in test [5] was 18.7 µM; in test [6], 0.39 µM.

Take `CCN(CC)CCCC(C)Nc1nccc2c1[nH]c1ccc(Cl)cc12` (configuration not stated): the IC50 in [3] is 0.24 µM; in test [4] it was 0.17 µM. `Cc1nccc2c1[nH]c1cc(OCCNC(=O)/C=C/c3ccc(Cl)cc3)ccc12`: the half-inhibitory concentration (IC50) in [7] was 0.32 µM; in test [8] it was 0.4 µM. The corresponding values for `Cc1nccc2c1[nH]c1cc(OCCNC(=O)/C=C/c3ccc(F)cc3)ccc12` are 0.15 µM and 0.69 µM. For `Cc1nccc2c1[nH]c1cc(OCCNC(=O)/C=C/c3ccccc3)ccc12`, in that order: 0.98 µM and 4.7 µM. As to `CC(C)(C)CC(C)(C)NC(=O)C1Cc2c([nH]c3ccccc23)C(c2ccc(Cl)cc2)N1` (configuration not stated), the half-maximal inhibitory concentration (IC50) in test [1] (setting [12]) is 8.41 µM; in test [2] (setting [13]) it was 6.41 µM. As for `C/C=C\CC1OC(C)=Cn2c3ccccc3c3cc(C(=O)OC)nc1c32` (configuration not stated), the half-maximal inhibitory concentration (IC50) in [9] was more than 5 µM. As for `COc1ccc2c3ccnc(C)c3n(CCNC(=O)/C=C/c3ccccc3)c2c1`, the concentration for half-maximal inhibition (IC50) in test [7] was 0.49 µM; in test [8], 1.11 µM. Consider `C=C(C#N)C1OC(C)=Cn2c3ccccc3c3cc(C(=O)OC)nc1c32` (configuration not stated), for which the IC50 in test [9] is more than 5 µM.

As for `C=CCC1OC(C)=Cn2c3ccc(Cl)cc3c3cc(C(=O)OC)nc1c32` (configuration not stated), the half-inhibitory concentration (IC50) in test [9] and in test [10] was more than 5 µM in each case.

With `CCOC(=O)c1cc2c([nH]c3ccccc32)c(-c2ccc(NC(=S)Nc3ccc(OC)cc3)cc2)n1`, the IC50 in [5] is 1.6 µM; in [6], 1.8 µM.

Turning to `Fc1ccc2[nH]c3c(NCCCn4ccnc4)nccc3c2c1`, the half-maximal inhibitory concentration (IC50) was 0.41 µM in test [3] and 0.2 µM in [4]. Regarding `N#Cc1ccc(C2NCCc3c2[nH]c2ccccc32)cc1` (configuration not stated), the IC50 in test [11] is 1.1 µM. Turning to `O=C(NC1CCCCC1)C1Cc2c([nH]c3ccccc23)C(c2ccc(Cl)cc2)N1` (racemic; form 1), the half-inhibitory concentration (IC50) is 16.1 µM in [1] (setting [12]) and 13.5 µM in test [2] (setting [13]). On to `O=C(NC1CCCCC1)C1Cc2c([nH]c3ccccc23)C(c2ccc(Cl)cc2)N1` (racemic; form 2), for which the IC50 in test [1] (rbc) worked out at 12.5 µM; in test [2] (rbc), 9.13 µM. `Nc1nccc(-c2nccc3c2[nH]c2ccccc23)n1` [ANNOMONTINE]: the IC50 turned out to be 3.44 µM in test [5] and 3.06 µM in test [6].
